Several values for one entry are separate records, joined by “and”; a condition that tells them apart may be missing. Equal entries are not always repeated. Marks after values point to notes of the source that are not given here.
What was measured:
Type in all cases: in vivo, Mice/Balb/c
[1] = system: croton oil induced ear edema; test: Croton oil induced ear swelling, 3 hours post sensitization (Example 1); settings: Hydrocortisone 600 nmol/ear; for ear swelling (difference between the inflamed and intact ear thickness) / % of Ear Thickness Inhibition (inhibition of ear swelling/edema vs Vehicle): 3 hours post croton oil; for ear swelling (difference between the inflamed and intact ear thickness) / Mean Group Ear Swelling (mm) 3 Hours Post Croton Oil MEAN: PEA, CBD 5 mg/ml; for ear swelling (difference between the inflamed and intact ear thickness): MEAN±SEM; for % of Ear Thickness Inhibition (inhibition of ear swelling/edema vs Vehicle) / Mean Group Ear Swelling (mm) 3 Hours Post Croton Oil MEAN: topical 1 hour prior to and 2 hours post sensitization; for % of Ear Thickness Inhibition (inhibition of ear swelling/edema vs Vehicle): 2 mg/ml or 5 mg/ml (PEA, CBD); for Mean Group Ear Swelling (mm) 3 Hours Post Croton Oil MEAN: Amitriptyline, Topiramate, Moclobimide 2 mg/ml
Procedure: A study was undertaken in order to evaluate the effect of topical preparations of various test items (TI) and TI combined with Croton oil on ear swelling. Ear thickness was measured before croton oil induced ear swelling and 3 hours post ear edema induction. The various TIs were applied topically 1 hour prior to ear edema sensitization and 2 hours post ear edema sensitization. The difference in ear thickness of the intact ear was subtracted from the ear thickness of the inflamed ear. This value is defined as “ear swelling”.
Species/Strain: Mice/Balb/c
Prior to sensitization animals were anesthetized. Ear thickness was measured 24 hours prior to croton oil sensitization; this measurement served as a baseline. On sensitization day, the animals were anesthetized using Ketamine and Xylazine formulation. Then, the animals were administered with TI topically. One hour later the animals were introduced to croton oil sensitization (50 μL). Two hours post croton oil sensitization the animals were administered with TI again. Three hours post croton oil sensitization the ear thickness of the animals were measured again.
TIs were administered twice, the first dose was 1 hour prior to croton oil sensitization and the second time was 2 hours post croton oil sensitization. All TIs were dissolved in 10% Ethanol and were applied topically on the surface of the sensitized ear.
Determination of individual body weights of animals was made one day before sensitization phase. A single person was responsible for ear thickness measurement throughout the entire study. The ear thickness of both left and right ears was measured using analogue calipers (Instrumentation 0.01 mm L-01) on 2 occasions: 24 hours prior to croton oil sensitization, and 3 hours post croton oil sensitization.
All data are presented in MEAN±SEM. T-test, two tailed, unpaired was applied to all data. P value was considered significant if p<0.05.
Ear thickness was measured before Croton oil induced ear sensitization (baseline) and 3 hours post ear edema induction. Treatment with various TI was applied topically 1 hour prior to sensitization and 2 hours post induction. The difference in ear thickness of the intact ear was subtracted from the ear thickness measured of the inflamed ear. This value was referred to as ear swelling.

[2] = system: croton oil induced ear edema; test: Croton oil induced ear edema, 6 hours post sensitization (Example 2)
From the text: A study was undertaken in order to evaluate the effect of topical preparations of Hydrocortisone, Betamethasone and PEA at various concentrations (as single agents and in various combinations) on ear edema in mice. […] The difference in ear thickness of the intact ear was subtracted from the ear thickness of the inflamed ear. This value is defined as “ear swelling”.

[3] = system: croton oil induced ear edema; test: Croton oil induced ear edema, 6 and 9 hours post sensitization (Example 3); settings: PEA 1%; for activity in inhibiting ear swelling vs. Vehicle: Betamethasone 4 μg/25 μl per ear; for Mean Left Ear Delta Thickness, Delta + 9 h vs baseline / Mean Left Ear Delta thickness, Delta + 6 h vs baseline / Mean Left Ear Thickness (mm) Day 0 (6 h post sensitization) / Mean Left Ear Thickness (mm) Day 0 (9 h post sensitization): Betamethasone EDmax 4 μg/25 μl per ear; for Mean Left Ear Thickness (mm) Day 0 (6 h post sensitization) / Mean Left Ear Thickness (mm) Day 0 (9 h post sensitization): topical 25 μl per ear prior to sensitization
Procedure: A study was undertaken in order to determine the effect of topical application of a combined preparation of Betamethasone and PEA on ear edema in mice. Ear thickness was measured before croton oil induced ear swelling and 6 and 9 hours post ear edema induction. […]
The difference in ear thickness of the intact ear was subtracted from the ear thickness of the inflamed ear. This value is defined as “ear swelling”.

[4] = steroid alone at ED50: Hydrocortisone 55 μg/25 μl per ear, Betamethasone 1 μg/25 μl per ear
[5] = steroid alone at EDmax: Hydrocortisone 200 μg/25 μl per ear, Betamethasone 4 μg/25 μl per ear
[6] = topical, steroid alone at calculated ED50: Hydrocortisone 55 μg/25 μl per ear, Betamethasone 1 μg/25 μl per ear
[7] = topical, steroid alone at calculated EDmax: Hydrocortisone 200 μg/25 μl per ear, Betamethasone 4 μg/25 μl per ear

In the case of `C[C@]12CCC(=O)C=C1CC[C@@H]1[C@@H]2[C@@H](O)C[C@@]2(C)[C@H]1CC[C@]2(O)C(=O)CO` [Hydrocortisone, hydrocortisone], the “ear swelling (difference between the inflamed and intact ear thickness)” value [1] is reported as 0.043±0.003 mm, the “% of Ear Thickness Inhibition (inhibition of ear swelling/edema vs Vehicle)” value [1] is reported as 40% and the “Mean Group Ear Swelling (mm) 3 Hours Post Croton Oil MEAN” value (from here on “Mean Group Ear Swelling”) [1] is reported as 0.243 mm. For the same compound, the “activity compared to vehicle in reducing ear thickness / ear edema” value ([2]; 6 hours post sensitization, Hydrocortisone 55 and 200 μg/25 μl per ear, Betamethasone 1 and 4 μg/25 μl per ear (calculated ED50 and EDmax)) was “not active”, the “Mean Left Ear Delta thickness, Delta + 6 h vs baseline” value [2, 4] was 0.060 and the “Mean Left Ear Delta thickness, Delta + 6 h vs baseline” value [2, 5] was 0.054. For the same compound, the “Left Ear Thickness (mm) Study Day 0 (6 H post sensitization)” value [2, 6] was 0.32 mm and the “Left Ear Thickness (mm) Study Day 0 (6 H post sensitization)” value [2, 7] was 0.31 mm.
In the case of `O=C(NCCN1CCOCC1)c1ccc(Cl)cc1` [Moclobimide, moclobemide], the “% of Ear Thickness Inhibition (inhibition of ear swelling/edema vs Vehicle)” value [1] is reported as 52% and the “Mean Group Ear Swelling” value [1] is reported as 0.265 mm.
`C=C(C)[C@@H]1CCC(C)=C[C@H]1c1c(O)cc(CCCCC)cc1O` [CBD, cannabidiol] was tested, and the “ear swelling (difference between the inflamed and intact ear thickness)” value [1] was 0.020±0.010 mm, the “% of Ear Thickness Inhibition (inhibition of ear swelling/edema vs Vehicle)” value [1] was 72% and the “Mean Group Ear Swelling” value [1] was 0.240* mm.
In the case of `C[C@H]1C[C@H]2[C@@H]3CCC4=CC(=O)C=C[C@]4(C)[C@@]3(F)[C@@H](O)C[C@]2(C)[C@@]1(O)C(=O)CO` [Betamethasone, betamethasone], the “Mean Left Ear Delta thickness, Delta + 6 h vs baseline” value [2, 4] is reported as 0.043, the “Mean Left Ear Delta thickness, Delta + 6 h vs baseline” value [2, 5] is reported as 0.031* and the “Left Ear Thickness (mm) Study Day 0 (6 H post sensitization)” value [2, 6] is reported as 0.30±0.008 mm. For the same compound, the “Left Ear Thickness (mm) Study Day 0 (6 H post sensitization)” value ([2]; topical, steroid alone at calculated ED50: Hydrocortisone 55 μg/25 μl per ear, Betamethasone 1 μg/25 μl per ear, listed as Beta.) was 0.30 * mm, the “Left Ear Thickness (mm) Study Day 0 (6 H post sensitization)” value [2, 7] was 0.29±0.005 mm and the “Left Ear Thickness (mm) Study Day 0 (6 H post sensitization)” value ([2]; topical, steroid alone at calculated EDmax: Hydrocortisone 200 μg/25 μl per ear, Betamethasone 4 μg/25 μl per ear, listed as Beta) was 0.29 ** mm. The “activity in inhibiting ear swelling vs. Vehicle” value ([3]; 6 hours post sensitization) was “active”, the “activity in inhibiting ear swelling vs. Vehicle” value ([3]; 9 hours post sensitization) was “not active” and the “Mean Left Ear Delta Thickness, Delta + 9 h vs baseline” value [3] was 0.092#. For the same compound, the “Mean Left Ear Delta thickness, Delta + 6 h vs baseline” value [3] was 0.036**, the “Mean Left Ear Thickness (mm) Day 0 (6 h post sensitization)” value [3] was 0.27*** mm and the “Mean Left Ear Thickness (mm) Day 0 (9 h post sensitization)” value [3] was 0.33 mm.
With `CN(C)CCC=C1c2ccccc2CCc2ccccc21` [Amitriptyline, amitriptyline] the “% of Ear Thickness Inhibition (inhibition of ear swelling/edema vs Vehicle)” value [1] was 62% and the “Mean Group Ear Swelling” value [1] was 0.248* mm.
For `CC1(C)O[C@@H]2[C@@H](CO[C@@]3(COS(N)(=O)=O)OC(C)(C)O[C@@H]23)O1` [Topiramate, topiramate], the “% of Ear Thickness Inhibition (inhibition of ear swelling/edema vs Vehicle)” value [1] was 63% and the “Mean Group Ear Swelling” value [1] was 0.243 mm.
In the case of `CCCCCCCCCCCCCCCC(=O)NCCO` [PEA, N-(2-hydroxyethyl)hexadecanamide], the “ear swelling (difference between the inflamed and intact ear thickness)” value [1] is reported as 0.035±0.012 mm, the “% of Ear Thickness Inhibition (inhibition of ear swelling/edema vs Vehicle)” value [1] is reported as 52% and the “Mean Group Ear Swelling” value [1] is reported as 0.268 mm. For the same compound, the “Mean Left Ear Delta thickness, Delta + 6 h vs baseline” value ([2]; PEA 0.5% (alone or + Hydrocortisone/Betamethasone ED50)) was 0.135, the “Mean Left Ear Delta thickness, Delta + 6 h vs baseline” value ([2]; PEA 1% (alone or + Hydrocortisone/Betamethasone ED50)) was 0.031* and the “reducing ear thickness vs. Vehicle” value ([2]; PEA 1% topical, 6 hours post sensitization) was “approximately 50%”. The “Mean Left Ear Delta thickness, Delta + 6 h vs baseline” value ([2]; PEA 5% (alone or + Hydrocortisone/Betamethasone ED50)) was 0.062, the “Left Ear Thickness (mm) Study Day 0 (6 H post sensitization)” value ([2]; topical 25 μl per ear 0.5 hour prior to sensitization, PEA 0.5% (alone or + Hydrocortisone 55 μg/25 μl or Betamethasone 1 μg/25 μl, ED50)) was 0.38 mm and the “Left Ear Thickness (mm) Study Day 0 (6 H post sensitization)” value ([2]; topical 25 μl per ear 0.5 hour prior to sensitization, PEA 1% (alone or + Hydrocortisone 55 μg/25 μl or Betamethasone 1 μg/25 μl, ED50)) was 0.29±0.004 mm and 0.29 ** mm. For the same compound, the “Left Ear Thickness (mm) Study Day 0 (6 H post sensitization)” value ([2]; topical 25 μl per ear 0.5 hour prior to sensitization, PEA 5% (alone or + Hydrocortisone 55 μg/25 μl or Betamethasone 1 μg/25 μl, ED50)) was 0.32 mm, the “activity in inhibiting ear swelling vs. Vehicle” value ([3]; 6 hours post sensitization) was “significant activity” and the “activity in inhibiting ear swelling vs. Vehicle” value ([3]; 9 hours post sensitization) was “not active”. For the same compound, the “Mean Left Ear Delta Thickness, Delta + 9 h vs baseline” value [3] was 0.147, the “Mean Left Ear Delta thickness, Delta + 6 h vs baseline” value [3] was 0.056* and the “Mean Left Ear Thickness (mm) Day 0 (6 h post sensitization)” value [3] was 0.30** mm. The “Mean Left Ear Thickness (mm) Day 0 (9 h post sensitization)” value [3] was 0.39 mm.

From patent US9623000B2, “Compositions and methods for treating inflammatory disorders” (priority 2008, dated 2017)
